PubChem BioAssay (NCI)
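96-well plates; 48 h exposure; 5 concentrations. Endpoints by linear interpolation between flanking doses. Not reached: highest tested concentration assigned. The concentration for 50% growth inhibition is given as GI50. TGI marks complete inhibition of growth.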

Legend:
Assay in all cases: NCI-60 cell line screen, 48 h
HL-60(TB) leukemia = test system: HL-60(TB) leukemia
UACC-62 melanoma = test system: UACC-62 melanoma
NCI-H23 lung = test system: NCI-H23 lung
SNB-75 CNS = test system: SNB-75 CNS
PC-3 prostate = test system: PC-3 prostate
HCC-2998 colon = test system: HCC-2998 colon
NCI-H226 lung = test system: NCI-H226 lung
HOP-92 NSCLC = test system: HOP-92 NSCLC
BT-549 breast = test system: BT-549 breast
CCRF-CEM leukemia = test system: CCRF-CEM leukemia
HCT-116 colon = test system: HCT-116 colon
CAKI-1 renal = test system: CAKI-1 renal
ACHN renal = test system: ACHN renal
SK-OV-3 ovarian = test system: SK-OV-3 ovarian
NCI-H460 lung = test system: NCI-H460 lung
M14 melanoma = test system: M14 melanoma
TK-10 renal = test system: TK-10 renal
OVCAR-3 ovarian = test system: OVCAR-3 ovarian
HS 578T breast = test system: HS 578T breast
SNB-19 CNS = test system: SNB-19 CNS
NCI/ADR-RES ovarian = test system: NCI/ADR-RES ovarian
SF-295 CNS = test system: SF-295 CNS
SR leukemia = test system: SR leukemia
OVCAR-5 ovarian = test system: OVCAR-5 ovarian
MDA-MB-435 = test system: MDA-MB-435
K-562 leukemia = test system: K-562 leukemia
EKVX NSCLC = test system: EKVX NSCLC
SF-268 CNS = test system: SF-268 CNS
SK-MEL-5 melanoma = test system: SK-MEL-5 melanoma
SN12C renal = test system: SN12C renal
IGROV1 ovarian = test system: IGROV1 ovarian
HCT-15 colon = test system: HCT-15 colon
SK-MEL-2 melanoma = test system: SK-MEL-2 melanoma
UACC-257 melanoma = test system: UACC-257 melanoma
A549 NSCLC = test system: A549 NSCLC
786-0 renal = test system: 786-0 renal
U251 CNS = test system: U251 CNS
MCF7 breast = test system: MCF7 breast
COLO 205 colon = test system: COLO 205 colon
HT29 colon = test system: HT29 colon
SW-620 colon = test system: SW-620 colon
SF-539 CNS = test system: SF-539 CNS
T-47D breast = test system: T-47D breast
LOX IMVI melanoma = test system: LOX IMVI melanoma
RXF 393 renal = test system: RXF 393 renal
MALME-3M melanoma = test system: MALME-3M melanoma
OVCAR-4 ovarian = test system: OVCAR-4 ovarian
MDA-MB-231 breast = test system: MDA-MB-231 breast
HOP-62 NSCLC = test system: HOP-62 NSCLC
KM12 colon = test system: KM12 colon
A498 renal = test system: A498 renal
SK-MEL-28 melanoma = test system: SK-MEL-28 melanoma
NCI-H522 lung = test system: NCI-H522 lung
UO-31 renal = test system: UO-31 renal
OVCAR-8 ovarian = test system: OVCAR-8 ovarian
MOLT-4 leukemia = test system: MOLT-4 leukemia
DU-145 prostate = test system: DU-145 prostate

Compound: CC1(C)CC[C@]2(C(N)=O)CC[C@]3(C)C(=CC[C@@H]4[C@@]5(C)C/C(=C/c6cccnc6)C(=O)C(C)(C)[C@@H]5CC[C@]43C)[C@@H]2C1
- GI50 (HL-60(TB) leukemia): 2.04 µM
- TGI (HL-60(TB) leukemia): 4.55 µM
- GI50 (UACC-62 melanoma): 2.21 µM
- TGI (UACC-62 melanoma): 5.13 µM
- GI50 (NCI-H23 lung): 3.31 µM
- TGI (NCI-H23 lung): > 100 µM
- GI50 (SNB-75 CNS): 9.92 µM
- TGI (SNB-75 CNS): > 100 µM
- GI50 (PC-3 prostate): 2.56 µM
- TGI (PC-3 prostate): 13.4 µM
- GI50 (HCC-2998 colon): 1.71 µM
- TGI (HCC-2998 colon): 3.34 µM
- GI50 (NCI-H226 lung): 2.09 µM
- TGI (NCI-H226 lung): 5.78 µM
- GI50 (HOP-92 NSCLC): 2.66 µM
- TGI (HOP-92 NSCLC): 8.7 µM
- GI50 (BT-549 breast): 2.61 µM
- TGI (BT-549 breast): 6.83 µM
- GI50 (CCRF-CEM leukemia): 2.54 µM
- TGI (CCRF-CEM leukemia): 7.73 µM
- GI50 (HCT-116 colon): 1.8 µM
- TGI (HCT-116 colon): 3.68 µM
- GI50 (CAKI-1 renal): 2.92 µM
- TGI (CAKI-1 renal): 13 µM
- GI50 (ACHN renal): 3.49 µM
- TGI (ACHN renal): 13.6 µM
- GI50 (SK-OV-3 ovarian): 3.95 µM
- TGI (SK-OV-3 ovarian): > 100 µM
- GI50 (NCI-H460 lung): 2.2 µM
- TGI (NCI-H460 lung): 5.33 µM
- GI50 (M14 melanoma): 3.38 µM
- TGI (M14 melanoma): 10.9 µM
- GI50 (TK-10 renal): 4.05 µM
- TGI (TK-10 renal): 30.2 µM
- GI50 (OVCAR-3 ovarian): 1.86 µM
- TGI (OVCAR-3 ovarian): 3.53 µM
- GI50 (HS 578T breast): 5.93 µM
- TGI (HS 578T breast): > 100 µM
- GI50 (SNB-19 CNS): 4.03 µM
- TGI (SNB-19 CNS): 16.5 µM
- GI50 (NCI/ADR-RES ovarian): 2.71 µM
- TGI (NCI/ADR-RES ovarian): 8.96 µM
- GI50 (SF-295 CNS): 3.16 µM
- TGI (SF-295 CNS): 11.2 µM
- GI50 (SR leukemia): 2.34 µM
- TGI (SR leukemia): 7.14 µM
- GI50 (OVCAR-5 ovarian): 1.93 µM
- TGI (OVCAR-5 ovarian): 4.16 µM
- GI50 (MDA-MB-435): 3.15 µM
- TGI (MDA-MB-435): 11.2 µM
- GI50 (K-562 leukemia): 2.4 µM
- TGI (K-562 leukemia): 7.11 µM
- GI50 (EKVX NSCLC): 3.44 µM
- TGI (EKVX NSCLC): > 100 µM
- GI50 (SF-268 CNS): 3.8 µM
- TGI (SF-268 CNS): 18 µM
- GI50 (SK-MEL-5 melanoma): 1.81 µM
- TGI (SK-MEL-5 melanoma): 3.33 µM
- GI50 (SN12C renal): 2.31 µM
- TGI (SN12C renal): 5.24 µM
- GI50 (IGROV1 ovarian): 3.62 µM
- TGI (IGROV1 ovarian): 73 µM
- GI50 (HCT-15 colon): 2.09 µM
- TGI (HCT-15 colon): 4.31 µM
- GI50 (SK-MEL-2 melanoma): 2.22 µM
- TGI (SK-MEL-2 melanoma): 4.99 µM
- GI50 (UACC-257 melanoma): 3.2 µM
- TGI (UACC-257 melanoma): 12.1 µM
- GI50 (A549 NSCLC): 3.31 µM
- TGI (A549 NSCLC): > 100 µM
- GI50 (786-0 renal): 3.85 µM
- TGI (786-0 renal): 30.5 µM
- GI50 (U251 CNS): 3.19 µM
- TGI (U251 CNS): 11.2 µM
- GI50 (MCF7 breast): 2.71 µM
- TGI (MCF7 breast): 13.7 µM
- GI50 (COLO 205 colon): 1.86 µM
- TGI (COLO 205 colon): 3.76 µM
- GI50 (HT29 colon): 2.1 µM
- TGI (HT29 colon): 4.56 µM
- GI50 (SW-620 colon): 3 µM
- TGI (SW-620 colon): > 100 µM
- GI50 (SF-539 CNS): 1.97 µM
- TGI (SF-539 CNS): 3.9 µM
- GI50 (T-47D breast): 2.66 µM
- TGI (T-47D breast): 11.4 µM
- GI50 (LOX IMVI melanoma): 1.71 µM
- TGI (LOX IMVI melanoma): 3.24 µM
- GI50 (RXF 393 renal): 1.67 µM
- TGI (RXF 393 renal): 3.3 µM
- GI50 (MALME-3M melanoma): 1.9 µM
- TGI (MALME-3M melanoma): 4.05 µM
- GI50 (OVCAR-4 ovarian): 7.1 µM
- TGI (OVCAR-4 ovarian): > 100 µM
- GI50 (MDA-MB-231 breast): 3.8 µM
- TGI (MDA-MB-231 breast): 22.3 µM
- GI50 (HOP-62 NSCLC): 2.84 µM
- TGI (HOP-62 NSCLC): 10.1 µM
- GI50 (KM12 colon): 2.28 µM
- TGI (KM12 colon): 5.72 µM
- GI50 (A498 renal): 2.06 µM
- TGI (A498 renal): 4.06 µM
- GI50 (SK-MEL-28 melanoma): 2.26 µM
- TGI (SK-MEL-28 melanoma): 4.71 µM
- GI50 (NCI-H522 lung): 2.43 µM
- TGI (NCI-H522 lung): 8.11 µM
- GI50 (UO-31 renal): 2.28 µM
- TGI (UO-31 renal): 6.83 µM
- GI50 (OVCAR-8 ovarian): 3.69 µM
- TGI (OVCAR-8 ovarian): > 100 µM
- GI50 (MOLT-4 leukemia): 2.01 µM
- TGI (MOLT-4 leukemia): 6.3 µM
- GI50 (DU-145 prostate): 3.52 µM
- TGI (DU-145 prostate): 16.5 µM
